Results as given in patent US5026733A, “Brain function-improving medicine” (Tsumura & Co., priority 1988, dated 1991).

Legend:
[1] = Step-through passive avoidance learning test; assay type: in vivo, male ICR strain mouse (5-weeks-old); conditions: 3 mg/kg p.o.
Procedure: (§1) A male ICR strain mouse (5-weeks-old) was admitted in a bright chamber of a step-through passive avoidance learning device. After 60 seconds, a guillotine door was opened. Just after the mouse entered a dark room, the guillotine door was shut, and a foot shock of 0.15 mA was given to the mouse for 5 seconds. This operation was conducted until the mouse stayed in the bright room for more than 1 minute. Then, the mouse was taken out and 3 mg/kg of the compound of the formula was orally administered, and the mouse was returned to a home cage.
(§2) After 24 hours, the mouse was admitted into the bright chamber, and after 60 seconds, the guillotine door was opened and the time required for the mouse to enter in the dark room was measured as 300 seconds at longest. Furthermore, 3 mg/kg of the compound of the formula was orally administered, and the spontaneous movement quantity for 4 hours after the oral administration was measured by an animex and the total quantity was calculated. Note, 1% Tween was orally administered to the control group.

[2] = Acute toxicity by oral administration, rats; conditions: rat, in vivo
[3] = tested on: locomotor activity by scopolamine; assay: Scopolamine-induced locomotor activity measured by animex; assay type: in vivo, male ICR strain mouse (6-weeks-old); conditions: 3 mg/kg p.o.
Procedure: In the same manner as described in Test Example 2, 3 mg/kg of the compound of the formula was orally administered to a male ICR strain mouse (6-weeks-old), and after 2 hours, 2 mg/kg of scopolamine was intraperitoneally administered. For 120 minutes from the point of the application, the locomotor activity was measured by an animex. To the control group, 1% Tween 80 was orally administered and 2 mg/kg of scopolamine was intraperitoneally administered, and the locomotor activity was similarly measured.

[4] = tested on: acetylcholine (ACh) content at cerebral cortex; assay: ACh content at cerebral cortex (HPLC-ECD), with or without scopolamine; assay type: in vivo, male ICR strain mouse (9-weeks-old)
Procedure: (§3) The compound of the formula was orally administered to a male ICR strain mouse (9-weeks-old), and after 2 hours, 2 mg/kg of scopolamine was applied to the abdominal cavity. After 30 minutes, the mouse was irradiated with 10 KW of microwaves for 0.5 seconds, and the brain was extracted and then divided into two parts, that is, the cerebral cortex (inclusive of hippocampus) and the subcerebral part. The wet weights were measured and the acetylcholine (hereinafter referred to as "ACh") contents were measured according to the following method.
(§4) Each part of the brain was homogenized by 0.1N perchloric acid (HClO4)and subjected to centrifugal separation under 30000 g for 15 minutes. The supernatant was passed through a 0.45 μm microfilter and poured into HPLC-ECD.
(§5) The measurement conditions were as follows.
(§6) Moving phase: phosphate buffer (pH 8.0)
(§7) Enzyme immobilized column: Eicom AC-Enzmpak
(§8) Anakyzing column: Eicom AC-ODS (4.6 mm in diameter and 250 mm in length)
(§9) The compound of the formula was orally administered while scopolamine was not applied, and after 2 hours and 30 minutes, the ACh content was determined in the same manner as described above.

[5] = Acute toxicity by oral administration, mice
[6] = Spontaneous movement quantity measured by animex; assay type: in vivo, male ICR strain mouse (5-weeks-old); conditions: 3 mg/kg p.o.; 4 hours after administration; control 5123 ± 259
Procedure: as §1, §2

[7] = tested on: acetylcholine (ACh) content at subcerebral part; assay: ACh content at subcerebral part (HPLC-ECD), with or without scopolamine; assay type: in vivo, male ICR strain mouse (9-weeks-old)
Procedure: as §3, §4, §5, §6, §7, §8, §9

[8] = tested on: locomotor activity by methamphethamine; assay: Methamphethamine-induced locomotor activity measured by animex; assay type: in vivo, male ICR strain mouse (5-weeks-old); conditions: 3 mg/kg p.o.
Procedure: The compound of the formula (3 mg/kg) was orally administered to a male ICR strain mouse (5-weeks-old), and after 2 hours, 2 mg/kg of methamphethamine was intraperitoneally administered. The locomotor activity for every 15 minutes was measured by an animex, and the measurement was conducted for 120 minutes. To the control group, 1% Tween 80 was administered instead of the compound of the formula, and after 2 hours, 2 mg/kg of methamphethamine was intraperitoneally administered. The locomotor activity was similarly measured.

[9] = also under the application of scopolamine

COc1cc2c(c(OC)c1OC)-c1c(cc(OC)c(OC)c1OC)C[C@](C)(O)[C@@H](C)C2 [compound of the formula]
avoidance learning function (in words) [1]: a reduction of the avoidance learning function is not observed | time required for mouse to enter dark room ([1]; 24 hours after foot shock training, measured as 300 seconds at longest, control 229 ± 30.4): > 300 s | LD50 [2]: 900 mg/kg | locomotor activity by scopolamine (in words) [3]: controls the locomotor activity by scopolamine | locomotor activity ([3]; 2 h before 2 mg/kg i.p. scopolamine, for 120 minutes, control 6353±296): 3991±389 | ACh content at cerebral cortex ([4]; 3 mg/kg p.o., 2 mg/kg scopolamine after 2 h, scopolamine alone 11.4): 13.9 nM/g of wet weight | ACh content at cerebral cortex ([4]; 3 mg/kg p.o., no scopolamine, 2 h 30 min, untreated 15.7): 20.9 nM/g of wet weight | ACh content at cerebral cortex ([4]; 30 mg/kg p.o., 2 mg/kg scopolamine after 2 h, scopolamine alone 11.4): 13.7 nM/g of wet weight | ACh content at cerebral cortex ([4]; 30 mg/kg p.o., no scopolamine, 2 h 30 min, untreated 15.7): 21.7 nM/g of wet weight | ACh content at cerebral cortex (in words) [4, 9]: increases the ACh contents at the cerebral cortex | LD50 ([5]; mouse, in vivo, po): 900 mg/kg | toxicity (in words) ([5]; oral acute toxicity, mice and rats): low toxicity | sum of spontaneous movement quantity for 4 hours [6]: 6693 ± 474 | ACh content at subcerebral part ([7]; 3 mg/kg p.o., 2 mg/kg scopolamine after 2 h, scopolamine alone 23.3): 26.9 nM/g of wet weight | ACh content at subcerebral part ([7]; 3 mg/kg p.o., no scopolamine, 2 h 30 min, untreated 27.8): 35.0 nM/g of wet weight | ACh content at subcerebral part ([7]; 30 mg/kg p.o., 2 mg/kg scopolamine after 2 h, scopolamine alone 23.3): 26.1 nM/g of wet weight | ACh content at subcerebral part ([7]; 30 mg/kg p.o., no scopolamine, 2 h 30 min, untreated 27.8): 38.9 nM/g of wet weight | ACh content at subcerebral part (in words) [7, 9]: increases the ACh contents at the cerebral cortex and the subcerebral part | locomotor activity by methamphethamine (in words) [8]: controls the locomotor activity by methamphethamine | locomotor activity after 15 minutes ([8]; 2 h before 2 mg/kg i.p. methamphethamine, after 15 minutes, control 1250 ± 68): 1034 ± 111 | locomotor activity after 30 minutes ([8]; 2 h before 2 mg/kg i.p. methamphethamine, after 30 minutes, control 1551 ± 33): 1295 ± 34 | locomotor activity after 45 minutes ([8]; 2 h before 2 mg/kg i.p. methamphethamine, after 45 minutes, control 1511 ± 32): 1245 ± 50 | locomotor activity after 60 minutes ([8]; 2 h before 2 mg/kg i.p. methamphethamine, after 60 minutes, control 1429 ± 38): 1156 ± 49 | locomotor activity after 75 minutes ([8]; 2 h before 2 mg/kg i.p. methamphethamine, after 75 minutes, control 1344 ± 34): 1087 ± 40 | locomotor activity after 90 minutes ([8]; 2 h before 2 mg/kg i.p. methamphethamine, after 90 minutes, control 1228 ± 44): 989 ± 53 | locomotor activity after 120 minutes ([8]; 2 h before 2 mg/kg i.p. methamphethamine, after 120 minutes, control 1126 ± 28): 898 ± 60
